Tests used:
Format in all cases: cell-based
androgen receptor (AR) = molecular target: T1, androgen receptor (AR) (Homo sapiens, UniProt P10275, T878A); test: AR degradation activity in LNCAP cells (Western blot); conditions: LNCAP cell line, 24 hours after administration; DC50 = concentration for 50% target protein degradation
T1 construct: endogenous in cells; host or cells: LNCAP
T1 sequence (P10275 1-920 T878A): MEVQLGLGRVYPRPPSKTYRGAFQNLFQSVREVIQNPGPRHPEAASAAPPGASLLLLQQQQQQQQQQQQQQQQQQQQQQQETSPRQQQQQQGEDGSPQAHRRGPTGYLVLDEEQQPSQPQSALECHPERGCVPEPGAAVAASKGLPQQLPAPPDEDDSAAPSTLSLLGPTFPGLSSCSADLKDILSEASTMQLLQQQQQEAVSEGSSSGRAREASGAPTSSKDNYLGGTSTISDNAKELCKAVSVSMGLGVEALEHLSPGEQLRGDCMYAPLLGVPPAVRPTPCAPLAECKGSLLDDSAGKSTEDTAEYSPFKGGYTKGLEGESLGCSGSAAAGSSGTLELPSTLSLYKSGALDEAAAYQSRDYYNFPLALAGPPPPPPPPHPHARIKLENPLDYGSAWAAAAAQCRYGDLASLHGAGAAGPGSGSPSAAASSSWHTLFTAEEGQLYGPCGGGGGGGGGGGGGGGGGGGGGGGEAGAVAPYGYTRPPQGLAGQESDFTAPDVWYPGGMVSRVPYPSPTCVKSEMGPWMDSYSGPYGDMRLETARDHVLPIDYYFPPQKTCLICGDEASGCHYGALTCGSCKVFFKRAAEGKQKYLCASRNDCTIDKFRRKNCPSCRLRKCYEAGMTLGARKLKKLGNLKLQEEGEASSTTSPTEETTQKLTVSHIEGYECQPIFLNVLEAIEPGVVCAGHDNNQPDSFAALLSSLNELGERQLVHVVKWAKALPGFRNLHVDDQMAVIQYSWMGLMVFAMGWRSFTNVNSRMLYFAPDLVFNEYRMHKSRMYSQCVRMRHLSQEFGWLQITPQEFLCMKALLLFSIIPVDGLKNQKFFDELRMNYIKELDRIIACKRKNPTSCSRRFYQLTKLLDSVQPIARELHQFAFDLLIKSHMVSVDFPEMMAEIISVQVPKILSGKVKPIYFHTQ
Description: LNCAP, VCAP and 22Rv1 cells were plated in 24-well plates at 1.5×10E5 cells/well in the RPMI growth medium containing 10% FBS and 1% Penicillin Streptomycin, and then incubated at 37° C. overnight. The following day, the test compound was administered to the cells by using 1000× compound stock solution prepared in DMSO at various concentrations. After administration of the compound, the cells were then incubated at 37° C. for 24 hours. Upon completion, the cells were washed with PBS and protein was collected in Laemmli sample buffer (1×; VWR International). Proteins in cell lysate were separated by SDS-PAGE and transferred to Odyssey nitrocellulose membranes (Licor) with iblot® dry blotting transfer system (ThermoFisher). Nonspecific binding was blocked by incubating membranes with Intercept Blocking Buffer (Licor) for 1 hour at room temperature with gentle shaking. The membranes were then incubated overnight at 4° C. with Primary antibodies rabbit anti-AR (1:1,000, Cell Signaling, 5153) and mouse anti-GAPDH (1:5,000, Santa Cruz Biotechnology, sc-47724) diluted in Intercept Blocking Buffer containing 0.1% Tween 20. After washing 3 times with TBS-T, the membranes were incubated with IRDye® […] goat anti-mouse IgG (1:20,000, Licor) or IRDye®8000W goat anti-rabbit IgG (1:20,000, Licor) for 1 hour. After TBS-T washes, membranes were rinsed in TBS and scanned on Odyssey® CLx Imaging System (Licor). The bands were quantified using Image Studio™ Software (Licor).
(§1) Table 4 summarizes the androgen receptor (AR) degradative activity and cell growth inhibition of exemplary compounds in (a) LNCAP, VCAP, and 22Rv1 cell lines 24 hours after administration of the compound; (b) RAMOS cell line 3 days after administration of the compound; and (c) VCAP cell line 6 days after administration of the compound. DC50: compound concentration needed for 50% target protein degradation.

RAMOS cells = test: Cell growth inhibition for Ramos cells (CellTiter-Glo); conditions: Homo sapiens, 72 h; RAMOS cell line, 3 days after administration
Description: RAMOS cells (ATCC) were seeded in 96-well plates at 16,000 cell/well in 90 μl of RPMI growth medium containing 10% Heat-Inactivated Fetal Bovine Serum and 1% Penicillin/Streptomycin. The test compound was administered to the cells by using 10× compound stock solution prepared in growth medium at various concentrations. After administration of the compound, cells were then incubated at 37° C. for 3 days. Before CellTiter-Glo assay, the plates were equilibrated at room temperature for approximately 10 minutes. 100 ul of CellTiter-Glo® Reagent (Promega) was added to each well. The plates were then incubated at room temperature for 10 minutes and luminescence was recorded by EnSpire plate reader (PerkinElmer).
as §1

VCAP cells = test: Cell growth inhibition for VCAP cells (CellTiter-Glo); conditions: Homo sapiens, 144 h; VCAP cell line, 6 days after administration, 0.1 nM R1881, charcoal-stripped FBS
Description: VCAP cells (ATCC) were seeded in 96-well plates at 3000 cell/well in 80 μl of DMEM growth medium containing 10% charcoal-stripped FBS (CSS) and 1% Penicillin/Streptomycin. Cells were incubated at 37° C. overnight. The following day, the test compound was administered to the cells by using 10× compound stock solution prepared in growth medium at various concentrations. Four hours later, 0.1 nM R1881 (Sigma) was administered to the cells by using 10× compound stock solution prepared in growth medium. 0.1% DMSO with or without 0.1 nM R1881 was administered as control. Cells were then incubated at 37° C. for 6 days. Before CelTiter-Glo assay, the plates were equilibrated at room temperature for approximately 10 minutes. 100 ul of CellTiter-Glo® Reagent (Promega) was added to each well. The plates were then incubated at room temperature for 10 minutes and luminescence was recorded by EnSpire plate reader (PerkinElmer).
as §1

SMILES	DC50 (androgen receptor (AR))	GI50 (RAMOS cells)	GI50 (VCAP cells)
CN(CC1CCN(c2ccc(C(=O)NC3C(C)(C)C(Oc4ccc(C#N)c5ncccc45)C3(C)C)cn2)CC1)C1CC(Oc2ccc3c(c2)C(=O)N(C2CCC(=O)NC2=O)C3=O)C1 (stereo not drawn) [Compound 2-9, N-((1,3-trans)-3-((8-cyanoquinolin-5-yl)oxy)-2,2,4,4-tetramethylcyclobutyl)-6-(4-((((1r,3r)-3-((2-(2,6-dioxopiperidin-3-yl)-1,3-dioxoisoindolin-5-yl)oxy)cyclobutyl)(methyl)amino)methyl)piperidin-1-yl)nicotinamide]	0.2 nM	–	–
CC1(C)C(NC(=O)c2ccc(N3CCC(CN4CCN(c5ccc6c(c5)CN([C@H]5CCC(=O)NC5=O)C6=O)CC4)CC3)nn2)C(C)(C)C1Oc1ccc(C#N)c2ncccc12 (stereo partly drawn) [Compound 2-31, N-((1,3-trans)-3-((8-cyanoquinolin-5-yl)oxy)-2,2,4,4-tetramethylcyclobutyl)-6-(4-((4-(2-((S)-2,6-dioxopiperidin-3-yl)-1-oxoisoindolin-5-yl)piperazin-1-yl)methyl)piperidin-1-yl)pyridazine-3-carboxamide]	0.6 nM	> 3000 nM	9.2 nM
CC1(C)C(NC(=O)c2ccc(N3CCC(CN4CCN(c5cc6c(cc5F)C(=O)N(C5CCC(=O)NC5=O)C6=O)CC4)CC3)nn2)C(C)(C)C1Oc1ccc(C#N)c2ncccc12 (stereo not drawn) [Compound 2-35, N-((1,3-trans)-3-((8-cyanoquinolin-5-yl)oxy)-2,2,4,4-tetramethylcyclobutyl)-6-(4-((4-(2-(2,6-dioxopiperidin-3-yl)-6-fluoro-1,3-dioxoisoindolin-5-yl)piperazin-1-yl)methyl)piperidin-1-yl)pyridazine-3-carboxamide]	0.4 nM	–	–
CC1(C)[C@H](NC(=O)c2ccc(N3CCC(CN4CCN(c5ccc6c(c5)CN(C5CCC(=O)NC5=O)C6=O)CC4)CC3)c(F)c2)C(C)(C)[C@H]1Oc1ccc(C#N)c2ncccc12 (stereo partly shown) [Compound 2-51, N-((1r,3r)-3-((8-cyanoquinolin-5-yl)oxy)-2,2,4,4-tetramethylcyclobutyl)-4-(4-((4-(2-(2,6-dioxopiperidin-3-yl)-1-oxoisoindolin-5-yl)piperazin-1-yl)methyl)piperidin-1-yl)-3-fluorobenzamide]	0.5 nM	> 3000 nM	11 nM
CC1(C)C(NC(=O)c2ccc(N3CCC(CN4CCN(c5cc6c(cc5F)C(=O)N(C5CCC(=O)NC5=O)C6=O)CC4)CC3)c(F)c2)C(C)(C)C1Oc1ccc(C#N)c2ncccc12 (stereo not drawn) [Compound 2-48, N-((1,3-trans))-3-((8-cyanoquinolin-5-yl)oxy)-2,2,4,4-tetramethylcyclobutyl)-4-(4-((4-(2-(2,6-dioxopiperidin-3-yl)-6-fluoro-1,3-dioxoisoindolin-5-yl)piperazin-1-yl)methyl)piperidin-1-yl)-3-fluorobenzamide]	3.8 nM	–	–
CC1(C)[C@H](NC(=O)c2ccc(N3CCC(CN4CCN(c5cc6c(cc5F)C(=O)N([C@H]5CCC(=O)NC5=O)C6)CC4)CC3)c(F)c2)C(C)(C)[C@H]1Oc1ccc(C#N)c2ncccc12 [Compound 2-53, N-((1,3-trans)-3-((8-cyanoquinolin-5-yl)oxy)-2,2,4,4-tetramethylcyclobutyl)-4-(4-((4-(2-((S)-2,6-dioxopiperidin-3-yl)-6-fluoro-1-oxoisoindolin-5-yl)piperazin-1-yl)methyl)piperidin-1-yl)-3-fluorobenzamide]	0.4 nM	–	11.9 nM
CC1(C)C(NC(=O)c2ccc(N3CCC(CN4CCN(c5cc6c(cc5F)C(=O)N(C5CCC(=O)NC5=O)C6=O)CC4)CC3)cc2)C(C)(C)C1Oc1ccc(C#N)c2ncccc12 (stereo not drawn) [Compound 2-47, N-((1,3-trans)-3-((8-cyanoquinolin-5-yl)oxy)-2,2,4,4-tetramethylcyclobutyl)-4-(4-((4-(2-(2,6-dioxopiperidin-3-yl)-6-fluoro-1,3-dioxoisoindolin-5-yl)piperazin-1-yl)methyl)piperidin-1-yl)benzamide]	0.8 nM	–	–
CC1(C)C(NC(=O)c2cnc(N3CCC(CN4CCN(c5cc6c(cc5F)C(=O)N(C5CCC(=O)NC5=O)C6=O)CC4)CC3)nc2)C(C)(C)C1Oc1ccc(C#N)c2ncccc12 (stereo not drawn) [Compound 2-50, N-((1,3-trans)-3-((8-cyanoquinolin-5-yl)oxy)-2,2,4,4-tetramethylcyclobutyl)-2-(4-((4-(2-(2,6-dioxopiperidin-3-yl)-6-fluoro-1,3-dioxoisoindolin-5-yl)piperazin-1-yl)methyl)piperidin-1-yl)pyrimidine-5-carboxamide]	0.6 nM	–	–
CC1(C)C(NC(=O)c2ccc(N3CCC(CN4CCN(c5cc6c(cc5F)C(=O)N(C5CCC(=O)NC5=O)C6=O)CC4)CC3)nc2)C(C)(C)C1Oc1ccc(C#N)c2ncccc12 (stereo not drawn) [Compound 2-36, N-((1,3-trans)-3-((8-cyanoquinolin-5-yl)oxy)-2,2,4,4-tetramethylcyclobutyl)-6-(4-((4-(2-(2,6-dioxopiperidin-3-yl)-6-fluoro-1,3-dioxoisoindolin-5-yl)piperazin-1-yl)methyl)piperidin-1-yl)nicotinamide]	1.4 nM	–	–
CC(C)N(CC1CCN(c2ccc(C(=O)NC3C(C)(C)C(Oc4ccc(C#N)c5ncccc45)C3(C)C)cn2)CC1)C1CC(Oc2ccc3c(c2)C(=O)N(C2CCC(=O)NC2=O)C3=O)C1 (stereo not drawn) [Compound 2-11, N-((1,3-trans)-3-((8-cyanoquinolin-5-yl)oxy)-2,2,4,4-tetramethylcyclobutyl)-6-(4-((((1r,3r)-3-((2-(2,6-dioxopiperidin-3-yl)-1,3-dioxoisoindolin-5-yl)oxy)cyclobutyl)(isopropyl)amino)methyl)piperidin-1-yl)nicotinamide]	2.8 nM	–	–
CC1(C)C(NC(=O)c2cnc(N3CCC(CN4CCN(c5cc6c(cc5F)C(=O)N(C5CCC(=O)NC5=O)C6=O)CC4)CC3)c(F)c2)C(C)(C)C1Oc1ccc(C#N)c2ncccc12 (stereo not drawn) [Compound 2-52, N-((1,3-trans)-3-((8-cyanoquinolin-5-yl)oxy)-2,2,4,4-tetramethylcyclobutyl)-6-(4-((4-(2-(2,6-dioxopiperidin-3-yl)-6-fluoro-1,3-dioxoisoindolin-5-yl)piperazin-1-yl)methyl)piperidin-1-yl)-5-fluoronicotinamide]	1.3 nM	–	–
CC1(C)[C@H](NC(=O)c2cnc(N3CCC(CN4CCN(c5ccc6c(c5)CN([C@H]5CCC(=O)NC5=O)C6=O)CC4)CC3)nc2)C(C)(C)[C@H]1Oc1ccc(C#N)c2ncccc12 [Compound 2-30]	0.2 nM	> 3000 nM	11.5 nM

— patent publication US11312702B2, “Substituted quinoline-8-carbonitrile derivatives having androgen receptor degradation activity and uses thereof” (ACCUTAR BIOTECHNOLOGY INC., priority 2019, dated 2022)
